Laboratory results reported in publication PMC12171682, “Saarvienin A—A Novel Glycopeptide with Potent Activity against Drug‐Resistant Bacteria” (Angewandte Chemie (International Ed. in English), 2025).
Converted amounts (≈) assume the structure as drawn. Like-named read-outs stand apart in the source and are kept apart here.

Legend:
[1] = system: vancomycin‐resistant E. faecium clinical isolates with reduced susceptibility to daptomycin (n = 26); test: microbe, parasite or virus in culture; conditions: Enterococcus faecium; for MIC: 24 h; for MIC50 / MIC90: VRE
E. faecalis ATCC 29212 = test: microbe, parasite or virus in culture; conditions: Enterococcus faecalis, ATCC29212, 24 h, read-out: MIC, E. faecalis ATCC29212
[2] = system: vancomycin‐resistant E. faecium clinical isolates with reduced susceptibility to daptomycin (n = 26); conditions: 26 VRE E. faecium clinical isolates; broth microdilution, MHB II; daptomycin with 50 µg/mL Ca2+; mean of two independent experiments
[3] = read-out: MIC, Enterococcus faecium isolate 1
[4] = read-out: MIC, Enterococcus faecium isolate 2
[5] = read-out: MIC, Enterococcus faecium isolate 3
[6] = read-out: MIC, Enterococcus faecium isolate 4
[7] = read-out: MIC, Enterococcus faecium isolate 5
[8] = read-out: MIC, Enterococcus faecium isolate 6
[9] = read-out: MIC, Enterococcus faecium isolate 7
[10] = read-out: MIC, Enterococcus faecium isolate 8
[11] = read-out: MIC, Enterococcus faecium isolate 9
[12] = read-out: MIC, Enterococcus faecium isolate 10
[13] = read-out: MIC, Enterococcus faecium isolate 11
[14] = read-out: MIC, Enterococcus faecium isolate 12
[15] = read-out: MIC, Enterococcus faecium isolate 13
[16] = read-out: MIC, Enterococcus faecium isolate 14
[17] = read-out: MIC, Enterococcus faecium isolate 15
[18] = read-out: MIC, Enterococcus faecium isolate 16
[19] = read-out: MIC, Enterococcus faecium isolate 17
[20] = read-out: MIC, Enterococcus faecium isolate 18
[21] = read-out: MIC, Enterococcus faecium isolate 19
[22] = read-out: MIC, Enterococcus faecium isolate 20
[23] = read-out: MIC, Enterococcus faecium isolate 21
[24] = read-out: MIC, Enterococcus faecium isolate 22
[25] = read-out: MIC, Enterococcus faecium isolate 23
[26] = read-out: MIC, Enterococcus faecium isolate 24
[27] = read-out: MIC, Enterococcus faecium isolate 25
[28] = read-out: MIC, Enterococcus faecium isolate 26

Compound | MIC [1, 3] [µg/mL] | MIC [1, 4] [µg/mL] | MIC [1, 5] [µg/mL] | MIC [1, 6] [µg/mL] | MIC [1, 7] [µg/mL] | MIC [1, 8] [µg/mL] | MIC [1, 9] [µg/mL] | MIC [1, 10] [µg/mL] | MIC [1, 11] [µg/mL] | MIC [1, 12] [µg/mL] | MIC [1, 13] [µg/mL] | MIC [1, 14] [µg/mL] | MIC [1, 15] [µg/mL] | MIC [1, 16] [µg/mL] | MIC [1, 17] [µg/mL] | MIC [1, 18] [µg/mL] | MIC [1, 19] [µg/mL] | MIC [1, 20] [µg/mL] | MIC [1, 21] [µg/mL] | MIC [1, 22] [µg/mL] | further results
CC(=O)NC[C@H]1CN(c2ccc(N3CCOCC3)c(F)c2)C(=O)O1 [Linezolid] | 2 (≈ 5.93 µM) | 2 (≈ 5.93 µM) | 4 (≈ 11.9 µM) | 2 (≈ 5.93 µM) | 4 (≈ 11.9 µM) | 4 (≈ 11.9 µM) | 2 (≈ 5.93 µM) | 2 (≈ 5.93 µM) | 2 (≈ 5.93 µM) | 2 (≈ 5.93 µM) | 2 (≈ 5.93 µM) | 4 (≈ 11.9 µM) | 4 (≈ 11.9 µM) | 4 (≈ 11.9 µM) | 4 (≈ 11.9 µM) | 4 (≈ 11.9 µM) | 2 (≈ 5.93 µM) | 4 (≈ 11.9 µM) | 4 (≈ 11.9 µM) | 2 (≈ 5.93 µM) | MIC [1, 23]: 2 µg/mL (≈ 5.93 µM); MIC [1, 24]: 4 µg/mL (≈ 11.9 µM); MIC [1, 25]: 4 µg/mL (≈ 11.9 µM); MIC [1, 26]: 4 µg/mL (≈ 11.9 µM); MIC [1, 27]: 4 µg/mL (≈ 11.9 µM); MIC [1, 28]: 2 µg/mL (≈ 5.93 µM); MIC50 [1]: 4 µg/mL (≈ 11.9 µM); MIC90 [1]: 4 µg/mL (≈ 11.9 µM); MIC (E. faecalis ATCC 29212): 2 µg/mL (≈ 5.93 µM); MIC Range [2]: 2 to 4 µg/mL
CC1(C)S[C@@H]2[C@H](NC(=O)[C@H](N)c3ccccc3)C(=O)N2[C@H]1C(=O)O [Ampicillin] | > 64 | > 64 | 64 (≈ 183 µM) | > 64 | > 64 | > 64 | > 64 | > 64 | > 64 | > 64 | > 64 | > 64 | > 64 | > 64 | > 64 | > 64 | > 64 | > 64 | > 64 | > 64 | MIC [1, 23]: > 64 µg/mL; MIC [1, 24]: > 64 µg/mL; MIC [1, 25]: > 64 µg/mL; MIC [1, 26]: > 64 µg/mL; MIC [1, 27]: > 64 µg/mL; MIC [1, 28]: > 64 µg/mL; MIC50 [1]: > 64 µg/mL; MIC90 [1]: > 64 µg/mL; MIC (E. faecalis ATCC 29212): 2 µg/mL (≈ 5.72 µM)
